From the supplement of paper PMC12137928
Where a name gives a salt, the structure may show the parent alone.

Tested on: HCT116
Details: 72 h
Outline: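 Each well of the 1536-well plates received 250 HCT116 cells, which attached over 5 h. Luminescence was measured with CellTiter-Glo, scaled with vehicle as 0% and positive control as -100%, and pattern-corrected. A four-parameter Hill fit yielded IC50 and maximal efficacy.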

| Structure (SMILES) | IC50 cell viability (ICRF193 0 nM) | IC50 cell viability (ICRF193 200 nM) |
| --- | --- | --- |
| CC[C@H]1OC(=O)C[C@@H](O)[C@H](C)[C@@H](O[C@@H]2O[C@H](C)[C@@H](O[C@H]3C[C@@](C)(O)[C@@H](O)[C@H](C)O3)[C@H](N(C)C)[C@H]2O)[C@@H](CC=O)C[C@@H](C)C(=O)/C=C/C(C)=C/[C@@H]1CO[C@@H]1O[C@H](C)[C@@H](O)[C@@H](OC)[C@H]1OC [TYLOSIN TARTRATE] | > 45.8 µM | > 45.8 µM |
| Nc1c2c(nc3ccccc13)CCCC2 [Tacrine hydrochloride] | > 45.8 µM | > 45.8 µM |
| CN1CC(=O)N2[C@H](c3ccc4c(c3)OCO4)c3[nH]c4ccccc4c3C[C@@H]2C1=O [Tadalafil] | > 45.8 µM | > 45.8 µM |
| O=C(O)c1ccc2nc(-c3cc(Cl)cc(Cl)c3)oc2c1 [Tafamidis] | > 45.8 µM | > 45.8 µM |
| C=Cc1c(C)c2cc3nc(c(CC(=O)N[C@@H](CC(=O)O)C(=O)O)c4[nH]c(cc5nc(cc1[nH]2)C(C)=C5CC)c(C)c4C(=O)O)[C@@H](CCC(=O)O)[C@@H]3C [Talaporfin sodium] | > 45.8 µM | > 45.8 µM |
| C=CCC1(C(C)CC)C(=O)NC(=O)NC1=O (stereo not drawn) [Talbutal] | > 45.8 µM | > 45.8 µM |
| C=CCN1CCc2nc(N)sc2CC1 [Talipexole] | > 45.8 µM | > 45.8 µM |
| CN1C(=O)C[C@@H](C(=O)N[C@@H](Cc2c[nH]cn2)C(=O)N2CCC[C@H]2C(N)=O)NC1=O [Taltirelin] | > 45.8 µM | > 45.8 µM |
| CCOc1ccccc1OCCN[C@H](C)Cc1ccc(OC)c(S(N)(=O)=O)c1 [Tamsulosin hydrochloride] | > 45.8 µM | > 45.8 µM |
| O=C1[C@@H]2[C@H]3CC[C@H](C3)[C@@H]2C(=O)N1CCCCN1CCN(c2ncccn2)CC1 [Tandospirone] | > 45.8 µM | > 45.8 µM |
| CCC(=O)NC[C@@H]1C[C@H]1c1cccc2c1CCO2 [Tasimelteon] | > 45.8 µM | > 45.8 µM |
| NCCS(=O)(=O)O [Taurine] | > 45.8 µM | > 45.8 µM |
| CCCCOC(=O)C(=O)Nc1cccc(-c2nnn[nH]2)c1 [Tazanolast] | > 45.8 µM | > 45.8 µM |
| CCOC(=O)c1ccc(C#Cc2ccc3c(c2)C(C)(C)CCS3)nc1 [Tazarotene] | > 45.8 µM | > 45.8 µM |
| C[C@]1(Cn2ccnn2)[C@H](C(=O)O)N2C(=O)C[C@H]2S1(=O)=O [Tazobactam sodium] | > 45.8 µM | > 45.8 µM |
| C[C@@H](O)[C@H]1C(=O)N2C(C(=O)OCOC(=O)C(C)(C)C)=C(SC3CN(C4=NCCS4)C3)[C@H](C)[C@H]12 [Tebipenem pivoxil] | > 45.8 µM | > 45.8 µM |
| O=c1[nH]c(=O)n(C2CCCO2)cc1F (stereo not drawn) [Tegafur] | > 45.8 µM | > 45.8 µM |
| Cc1cn([C@@H]2C[C@@H](O)[C@H](CO)O2)c(=O)[nH]c1=O [Telbivudine] | > 45.8 µM | > 45.8 µM |
| CCCc1nc2c(C)cc(-c3nc4ccccc4n3C)cc2n1Cc1ccc(-c2ccccc2C(=O)O)cc1 [Telmisartan] | > 45.8 µM | > 45.8 µM |
| CCOC(=O)[C@H](CCc1ccccc1)N[C@H]1CS[C@H](c2cccs2)CN(CC(=O)O)C1=O [Temocapril hydrochloride] | > 45.8 µM | > 45.8 µM |
| Cn1nnc2c(C(N)=O)ncn2c1=O [Temozolomide] | > 45.8 µM | > 45.8 µM |
| COc1ccc2[nH]c([S+]([O-])Cc3ncc(C)c(OC)c3C)nc2n1 (stereo not drawn) [Tenatoprazole] | > 45.8 µM | > 45.8 µM |
| Cc1cc(N2CCN([C@@H]3CN[C@H](C(=O)N4CCSC4)C3)CC2)n(-c2ccccc2)n1 [Teneligliptin] | > 45.8 µM | > 45.8 µM |
| CC(C)OC(=O)OCOP(=O)(CO[C@H](C)Cn1cnc2c(N)ncnc21)OCOC(=O)OC(C)C [Tenofovir disoproxil fumarate] | > 45.8 µM | > 45.8 µM |
